Results taken from patent publication US20200262813A1, “1,5,7-TRISUBSTITUTED ISOQUINOLINE DERIVATIVES, PREPARATION THEREOF, AND USE THEREOF IN MEDICINES” (SHANGHAI HAIYAN PHARMACEUTICAL TECHNOLOGY CO., LTD., priority 2016, published 2020).
Read-outs that look alike come from different tables or passages of the source.

Legend:
Pfeiffer cells = assay: Cell proliferation test (cell counting kit-8, 6 days); assay type: cell-based; details: 6 days' growth
Method: Cells were harvested by centrifuge and densities were determined using a CounterStar cell counter. Appropriate number of cells were plated in a 96-well culture plate and incubated overnight. Compounds to be tested were 1:3 diluted for 8 gradient points and added into corresponding wells. After 6 days' growth, cell counting kit-8 (Dojindo) was used to detect cell viability and absorbance values were read on Tecan infinite pro.

[1] = biological target: Recombinant PRC2 (EZH2-Y641F) (Homo sapiens, UniProt Q15910, Y641F); assay: In vitro methyltransferase activity test (LANCE Ultra); details: LANCE Ultra detection, 3 hours reaction;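 also: compounds tested as an 8-point threefold dilution series, fluorescence read after 1 h detection step at room temperature, IC50 derived from a four-parameter curve fit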
[2] = EZH2 Y641F IC50, Recombinant PRC2 (EZH2-Y641F)
[3] = read-out: EZH2 Y641F IC50, Recombinant PRC2 (EZH2-Y641F)

Chain of Recombinant PRC2 (EZH2-Y641F) (Q15910 whole entry Y641F): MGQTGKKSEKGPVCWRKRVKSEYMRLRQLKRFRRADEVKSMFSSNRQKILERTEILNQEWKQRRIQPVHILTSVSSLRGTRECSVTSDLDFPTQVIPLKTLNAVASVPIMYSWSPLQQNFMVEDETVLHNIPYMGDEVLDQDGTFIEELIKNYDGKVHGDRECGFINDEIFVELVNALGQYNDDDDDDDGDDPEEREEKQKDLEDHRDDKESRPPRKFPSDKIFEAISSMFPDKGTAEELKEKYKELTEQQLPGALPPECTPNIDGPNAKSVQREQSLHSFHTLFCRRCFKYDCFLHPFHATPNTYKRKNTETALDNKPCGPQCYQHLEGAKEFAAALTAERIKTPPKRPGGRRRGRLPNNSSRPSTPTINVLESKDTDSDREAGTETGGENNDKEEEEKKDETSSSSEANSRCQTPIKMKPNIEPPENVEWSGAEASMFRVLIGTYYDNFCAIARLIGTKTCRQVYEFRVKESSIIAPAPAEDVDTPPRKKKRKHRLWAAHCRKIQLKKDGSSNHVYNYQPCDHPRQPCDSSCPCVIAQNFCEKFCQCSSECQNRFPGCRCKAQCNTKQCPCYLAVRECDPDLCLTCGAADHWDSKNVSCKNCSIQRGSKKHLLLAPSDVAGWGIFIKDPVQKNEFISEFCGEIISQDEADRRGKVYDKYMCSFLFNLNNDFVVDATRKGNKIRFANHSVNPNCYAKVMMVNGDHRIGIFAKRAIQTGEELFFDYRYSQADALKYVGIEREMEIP
Chain of Recombinant PRC2 (EZH2-Y641F) (O75530 whole entry partner): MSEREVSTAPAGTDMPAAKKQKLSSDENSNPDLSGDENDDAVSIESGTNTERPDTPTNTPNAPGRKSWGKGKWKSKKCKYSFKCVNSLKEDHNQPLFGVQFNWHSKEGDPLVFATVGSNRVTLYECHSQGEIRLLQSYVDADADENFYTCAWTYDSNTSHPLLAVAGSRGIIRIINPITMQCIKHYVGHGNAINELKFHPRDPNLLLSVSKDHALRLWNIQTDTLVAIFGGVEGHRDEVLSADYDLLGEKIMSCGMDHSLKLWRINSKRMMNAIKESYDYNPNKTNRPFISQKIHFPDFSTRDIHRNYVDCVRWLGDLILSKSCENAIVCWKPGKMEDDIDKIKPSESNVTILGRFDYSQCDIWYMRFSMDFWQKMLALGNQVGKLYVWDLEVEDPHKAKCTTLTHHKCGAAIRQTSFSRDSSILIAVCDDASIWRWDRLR
Chain of Recombinant PRC2 (EZH2-Y641F) (Q15022 whole entry partner): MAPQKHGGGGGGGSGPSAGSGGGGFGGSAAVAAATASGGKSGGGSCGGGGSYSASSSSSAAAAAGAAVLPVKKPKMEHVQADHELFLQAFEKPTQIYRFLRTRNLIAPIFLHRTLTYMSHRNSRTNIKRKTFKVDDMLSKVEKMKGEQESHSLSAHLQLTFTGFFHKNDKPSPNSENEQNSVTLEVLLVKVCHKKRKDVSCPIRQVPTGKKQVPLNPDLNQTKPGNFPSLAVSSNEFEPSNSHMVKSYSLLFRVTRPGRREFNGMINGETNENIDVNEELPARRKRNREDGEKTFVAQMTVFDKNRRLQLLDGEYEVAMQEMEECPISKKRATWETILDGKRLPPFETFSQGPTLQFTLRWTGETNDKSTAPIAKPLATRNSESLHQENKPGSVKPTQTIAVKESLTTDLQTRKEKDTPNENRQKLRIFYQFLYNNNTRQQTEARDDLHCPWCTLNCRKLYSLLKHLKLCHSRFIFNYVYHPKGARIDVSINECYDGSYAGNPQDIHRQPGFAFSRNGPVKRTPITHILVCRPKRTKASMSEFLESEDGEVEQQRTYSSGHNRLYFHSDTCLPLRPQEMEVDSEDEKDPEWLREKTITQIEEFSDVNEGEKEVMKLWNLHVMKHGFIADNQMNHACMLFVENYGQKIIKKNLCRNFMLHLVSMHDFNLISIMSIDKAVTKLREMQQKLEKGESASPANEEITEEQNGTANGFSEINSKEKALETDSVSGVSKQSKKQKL
Chain of Recombinant PRC2 (EZH2-Y641F) (Q09028 whole entry partner): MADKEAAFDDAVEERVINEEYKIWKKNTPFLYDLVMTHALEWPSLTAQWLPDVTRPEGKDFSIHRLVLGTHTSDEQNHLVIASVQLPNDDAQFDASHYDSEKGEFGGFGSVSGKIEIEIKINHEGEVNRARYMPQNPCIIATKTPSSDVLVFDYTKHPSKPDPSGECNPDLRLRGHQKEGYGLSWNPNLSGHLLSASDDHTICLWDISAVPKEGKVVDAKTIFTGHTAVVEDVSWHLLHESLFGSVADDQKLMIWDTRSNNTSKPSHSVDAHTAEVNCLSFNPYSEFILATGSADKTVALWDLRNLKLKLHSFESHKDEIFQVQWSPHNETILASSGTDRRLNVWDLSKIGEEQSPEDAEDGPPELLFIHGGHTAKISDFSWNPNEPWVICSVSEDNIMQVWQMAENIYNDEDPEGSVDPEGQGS
Chain of Recombinant PRC2 (EZH2-Y641F) (Q6ZN18 whole entry partner): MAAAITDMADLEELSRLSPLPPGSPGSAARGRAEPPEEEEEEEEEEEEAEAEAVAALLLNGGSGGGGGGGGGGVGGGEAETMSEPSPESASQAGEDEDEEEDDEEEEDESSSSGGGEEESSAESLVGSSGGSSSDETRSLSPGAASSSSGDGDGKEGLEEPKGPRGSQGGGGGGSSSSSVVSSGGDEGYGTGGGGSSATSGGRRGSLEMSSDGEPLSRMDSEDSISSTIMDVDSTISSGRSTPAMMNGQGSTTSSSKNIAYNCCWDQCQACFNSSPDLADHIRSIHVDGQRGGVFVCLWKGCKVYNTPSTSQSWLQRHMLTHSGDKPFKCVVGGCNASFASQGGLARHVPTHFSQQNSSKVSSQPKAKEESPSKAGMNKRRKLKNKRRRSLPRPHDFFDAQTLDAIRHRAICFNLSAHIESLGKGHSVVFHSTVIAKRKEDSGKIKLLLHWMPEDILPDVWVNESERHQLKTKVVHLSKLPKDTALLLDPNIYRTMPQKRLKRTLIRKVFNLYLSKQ

Structure (SMILES) | IC50 [1, 2] | IC50 [1, 3] | IC50 (Pfeiffer cells; Homo sapiens, Pfeiffer, 144 h) | IC50 (Pfeiffer cells)
CCN(c1cc(-c2ccc(CN3CCN(C)CC3)nc2)cc2c(NCc3c(C)cc(C)[nH]c3=O)nccc12)C1CCOCC1 [Compound Z-35] | 221 nM | – | – | 611 nM
CCN(c1cc(-c2ccc(N3CCOCC3)nc2)cc2c(NCc3c(C)cc(C)[nH]c3=O)nccc12)C1CCN(C(C)C)CC1 [Compound Z-66] | 159 nM | – | 766 nM | –
CCN(c1cc(-c2ccc(N3CCN(C)CC3)nc2)cc2c(NCc3c(C)cc(C)[nH]c3=O)nccc12)C1CCN(C2CC2)CC1 [Compound Z-74] | 326 nM | – | 799 nM | –
CCN(c1cc(-c2cccnc2)cc2c(NCc3c(C)cc(C)[nH]c3=O)nccc12)C1CCC(O)CC1 (centres unmarked) [Compound Z-85] | 269 nM | – | 521 nM | –
CCN(c1cc(C2=CCN(C)CC2)cc2c(NCc3c(C)cc(C)[nH]c3=O)nccc12)C1CCC(O)CC1 (centres unmarked) [Compound Z-91] | 75 nM | – | 291 nM | –
CCN(c1cc(-c2ccc(N3CCN(C)CC3)nc2)cc2c(NCc3c(C)cc(C)[nH]c3=O)nccc12)C1CCC(F)(F)CC1 [Compound Z-94] | 159 nM | – | 384 nM | –
CCN(CCN(C)C)c1cc(-c2ccc(N3CCN(C)CC3)nc2)cc2c(NCc3c(C)cc(C)[nH]c3=O)nccc12 [Compound Z-97] | 283 nM | – | 326 nM | –
CCN(c1cc(-c2cnc(N3CCOCC3)nc2)cc2c(NCc3c(C)cc(C)[nH]c3=O)nccc12)C1CCC(O)CC1 (centres unmarked) [Compound Z-99] | 251 nM | – | 201 nM | –
CCN(c1cc(-c2ccc(CN3CCN(C)CC3)nc2)cc2c(NCc3c(C)cc(C)[nH]c3=O)nccc12)C1CCC(F)(F)CC1 [Compound Z-105] | 197 nM | – | 988 nM | –
CCN(c1cc(-c2cnc(N3CCOCC3)nc2)cc2c(NCc3c(C)cc(C)[nH]c3=O)nccc12)[C@H]1CC[C@@H](O)CC1 [Compound Z-108] | – | 283 nM | – | 612 nM
CCN(c1cc(-c2ccc(CN3CCN(C(C)C)CC3)nc2)cc2c(NCc3c(C)cc(C)[nH]c3=O)nccc12)C1CCOCC1 [Compound Z-112] | 96 nM | – | 595 nM | –
CCN(c1cc(-c2ccc(CN3CCOCC3)nc2)cc2c(NCc3c(C)cc(C)[nH]c3=O)nccc12)C1CCOCC1 [Compound Z-113] | 153 nM | – | 713 nM | –
CCN(c1cc(-c2ccc(CN3CCN(C)C(=O)C3)nc2)cc2c(NCc3c(C)cc(C)[nH]c3=O)nccc12)C1CCOCC1 [Compound Z-114] | 84 nM | – | 788 nM | –
CCN(c1cc(-c2cnc(CN3CCN(C)CC3)nc2)cc2c(NCc3c(C)cc(C)[nH]c3=O)nccc12)C1CCOCC1 [Compound Z-115] | 47 nM | – | 706 nM | –
CCN(c1cc(-c2cnc(CN3CCN(C)CC3)c(F)c2)cc2c(NCc3c(C)cc(C)[nH]c3=O)nccc12)C1CCOCC1 [Compound Z-116] | 41 nM | – | 525 nM | –
CCN(c1cc(-c2ccc(CN3CCN(C)CC3)nc2)cc2c(NCc3c(C)cc(C)[nH]c3=O)nccc12)C1CCOCC1 [Compound Z-118] | 85 nM | – | 973 nM | –
CCN(c1cc(-c2cnc(CN3CCOCC3)nc2)cc2c(NCc3c(C)cc(C)[nH]c3=O)nccc12)C1CCOCC1 [Compound Z-121] | 474 nM | – | 646 nM | –
CCN(c1cc(-c2cnc(CN3CCOCC3)c(F)c2)cc2c(NCc3c(C)cc(C)[nH]c3=O)nccc12)C1CCOCC1 [Compound Z-122] | 439 nM | – | 833 nM | –
CCN(c1cc(-c2cncc(F)c2)cc2c(NCc3c(C)cc(C)[nH]c3=O)nccc12)C1CCN(C(C)C)CC1 [Compound Z-125] | 22 nM | – | 772 nM | –
CCN(c1cc(-c2ccccn2)cc2c(NCc3c(C)cc(C)[nH]c3=O)nccc12)C1CCN(C(C)C)CC1 [Compound Z-126] | 156 nM | – | 765 nM | –
CCN(c1cc(-c2cnc(N3CCOCC3)nc2)cc2c(NCc3c(OC)cc(C)[nH]c3=O)nccc12)C1CCC(N(C)C)CC1 (centres unmarked) [Compound Z-192] | 42 nM | – | 393 nM | –
CCN(c1cc(Cl)cc2c(NCc3c(C)cc(C)[nH]c3=O)nccc12)C1CCNCC1 [Compound Z-201] | 59 nM | – | 133 nM | –
CCN(c1cc(Cl)cc2c(NCc3c(OC)cc(C)[nH]c3=O)nccc12)C1CCNCC1 [Compound Z-208] | 9 nM | – | 155 nM | –
CCN(c1cc(Cl)cc2c(NCc3c(C)cc(C)[nH]c3=O)nccc12)C1CC2CCC(C1)N2 (centres unmarked) [Compound Z-209] | 10 nM | – | 250 nM | –

Further lines, with some results ahead:

IC50 [1, 2] | IC50 [1, 3] | Structure (SMILES) | IC50 (Pfeiffer cells; Homo sapiens, Pfeiffer, 144 h) | IC50 (Pfeiffer cells)
13 nM | – | CCN(c1cc(-c2ccc(C3CCN(C)CC3)nc2)cc2c(NCc3c(C)cc(C)[nH]c3=O)nccc12)[C@H]1CC[C@H](N(C)C)CC1 [Compound Z-17, 3-((5-(((1R,4R)-4-(dimethylamino)cyclohexyl) (ethyl)amino)-7-(6-(1-methylpiperidine-4-yl)pyridine-3-yl)-isoquinolinylamino)methyl)-4,6-dimethylpyridine-2(1H)-one] | 768 nM | –
28 nM | – | CCN(c1cc(-c2ccc(CN3CCCCC3)cc2)cc2c(NCc3c(C)cc(C)[nH]c3=O)nccc12)C1CCC(N(C)C)CC1 (centres unmarked) [Compound Z-37] | 991 nM | –
16 nM | – | CCN(c1cc(-c2ccc(N3CCOCC3)nc2)cc2c(NCc3c(C)cc(C)[nH]c3=O)nccc12)C1CCC(N(C)C)CC1 (centres unmarked) [Compound Z-39] | 507 nM | –
38 nM | – | CCN(c1cc(-c2ccc(CN(C)C)cc2)cc2c(NCc3c(C)cc(C)[nH]c3=O)nccc12)C1CCC(N(C)C)CC1 (centres unmarked) [Compound Z-45] | 599 nM | –
14 nM | – | CCN(c1cc(-c2cnc(N3CCOCC3)nc2)cc2c(NCc3c(C)cc(C)[nH]c3=O)nccc12)[C@H]1CC[C@H](N(C)C)CC1 [Compound Z-46] | 362 nM | –
19 nM | – | CCN(c1cc(-c2ccc(CN3CCN(C)CC3)cc2)cc2c(NCc3c(C)cc(C)[nH]c3=O)nccc12)[C@H]1CC[C@H](N(C)C)CC1 [Compound Z-54] | 614 nM | –
9 nM | – | CCN(c1cc(-c2cccnc2)cc2c(NCc3c(C)cc(C)[nH]c3=O)nccc12)[C@H]1CC[C@@H](N(C)C)CC1 [Compound Z-64] | 357 nM | –
52 nM | – | CCN(c1cc(-c2cncnc2)cc2c(NCc3c(C)cc(C)[nH]c3=O)nccc12)C1CCC(N(C)C)CC1 (centres unmarked) [Compound Z-65] | 972 nM | –
150 nM | – | CCN(c1cc(-c2ccncc2)cc2c(NCc3c(C)cc(C)[nH]c3=O)nccc12)[C@H]1CC[C@H](N(C)C)CC1 [Compound Z-73] | 593 nM | –
128 nM | – | CCN(c1cc(-c2ccc(N3CCN(C)CC3)nc2)cc2c(NCc3c(C)cc(C)[nH]c3=O)nccc12)C1CCC(O)CC1 (centres unmarked) [Compound Z-86] | 483 nM | –
43 nM | – | CCN(c1cc(-c2cnc(N3CCN(C)CC3)nc2)cc2c(NCc3c(C)cc(C)[nH]c3=O)nccc12)C1CCC(O)CC1 (centres unmarked) [Compound Z-89] | 401 nM | –
74 nM | – | CCN(c1cc(-c2ccc(C3CC3)nc2)cc2c(NCc3c(C)cc(C)[nH]c3=O)nccc12)C1CCC(N(C)C)CC1 (centres unmarked) [Compound Z-93] | 279 nM | –
37 nM | – | Cc1cc(C)c(CNc2nccc3c(N(C)C4CCC(N(C)C)CC4)cc(-c4ccc(N5CCN(C)CC5)nc4)cc23)c(=O)[nH]1 (centres unmarked) [Compound Z-111] | 478 nM | –
– | 107 nM | CCN(c1cc(Cl)cc2c(NCc3c(C)cc(C)[nH]c3=O)nccc12)C1CCC(N(C)C)CC1 (centres unmarked) [Compound Z-132] | – | 301 nM
49 nM | – | CCN(c1cc(Cl)cc2c(NCc3c(C)cc(C)[nH]c3=O)nccc12)[C@H]1CC[C@@H](N(C)C)CC1 [Compound Z-136] | 465 nM | –
31 nM | – | CCN(c1cc(C#CCN2CCOCC2)cc2c(NCc3c(C)cc(C)[nH]c3=O)nccc12)C1CCC(N(C)C)CC1 (centres unmarked) [Compound Z-177] | 444 nM | –
– | 15 nM | CCN(c1cc(C#CCN2CCOCC2)cc2c(NCc3c(C)cc(C)[nH]c3=O)nccc12)[C@H]1CC[C@@H](N(C)C)CC1 [Compound Z-179] | – | 540 nM
13 nM | – | CCN(c1cc(C#CCN2CCN(C)CC2)cc2c(NCc3c(C)cc(C)[nH]c3=O)nccc12)C1CCC(N(C)C)CC1 (centres unmarked) [Compound Z-180] | 380 nM | –
128 nM | – | CCN(c1cc(N(C)c2cccnc2)cc2c(NCc3c(C)cc(C)[nH]c3=O)nccc12)[C@H]1CC[C@H](N(C)C)CC1 [Compound Z-183] | 395 nM | –
67 nM | – | CCN(c1cc(N(C)c2cccnc2)cc2c(NCc3c(C)cc(C)[nH]c3=O)nccc12)C1CCC(N(C)C)CC1 (centres unmarked) [Compound Z-186] | 251 nM | –
21 nM | – | CCN(c1cc(-c2ccc(N3CCN(C)CC3)nc2)cc2c(NCc3c(OC)cc(C)[nH]c3=O)nccc12)C1CCC(N(C)C)CC1 (centres unmarked) [Compound Z-193] | 620 nM | –
16 nM | – | CCN(c1cc(-c2ccc(CN3CCN(C)CC3)nc2)cc2c(NCc3c(C)cc(C)[nH]c3=O)nccc12)C1CCC(O)CC1 (centres unmarked) [Compound Z-196] | 583 nM | –
51 nM | – | CCN(c1cc(Cl)cc2c(NCc3c(OC)cc(C)[nH]c3=O)nccc12)C1CCC(N(C)C)CC1 (centres unmarked) [Compound Z-197] | 371 nM | –
115 nM | – | CCN(c1cc(OCCOC)cc2c(NCc3c(C)cc(C)[nH]c3=O)nccc12)C1CCC(N(C)C)CC1 (centres unmarked) [Compound Z-206] | 234 nM | –
28 nM | – | CCN(c1c(F)c(-c2ccc(N3CCN(C)CC3)nc2)cc2c(NCc3c(C)cc(C)[nH]c3=O)nccc12)C1CCC(N(C)C)CC1 (centres unmarked) [Compound Z-218, 3-((5-((4-(dimethylamino)cyclohexyl) (ethyl)amino)-6-fluoro-7-(6-(4-methylpiperazin-1-yl)pyridin-3-yl)isoquinolin-1-ylamino)methyl)-4,6-dimethyl-2(1H)-one] | 212 nM | –
